Among the test systems are SR; MCF7; OVCAR-4; OVCAR-5; Malme-3M; UACC-257; HCT-15; SNB-19; OVCAR-3; HL-60; HOP-92; Hs-578T; SN12C; A498; SK-MEL-28; UO-31; UACC-62; 786-0; SF-295; HCT-116.
Test in all cases: NCI tumour cell line growth inhibition, 48 h

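These data come from cells grown in 96-well plates and exposed to compound for 48 hours at five concentrations. Here, GI50 denotes the concentration required for 50% inhibition of growth.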 The source made the active and inactive calls. Rule as the data show it: active = GI50 up to about 1.1 µM and inactive = higher. A value given as a limit tells only on which side of the number the result lay.

Data on ten molecules can be found in ChEMBL document CHEMBL1201862, “PubChem BioAssay data set” (2004).

Take `O=c1cnn(C/C=C/CBr)c(=O)[nH]1`: the GI50 in the assay on SR was 17.7 µM (inactive); in the assay on MCF7 it was 12.9 µM (inactive); in the assay on OVCAR-4 it was 20.6 µM (inactive); in the assay with OVCAR-5, 17.4 µM (inactive); in the assay with Malme-3M it was 16.4 µM (inactive); in the assay with UACC-257, 13.9 µM (inactive). Also, the GI50 with HCT-15 was 18.2 µM; in the assay with SNB-19 it was 24.7 µM (inactive); in the assay with OVCAR-3 it was 25.7 µM (inactive); in the assay on HL-60, 8.47 µM (inactive); in the assay on HOP-92, 14.6 µM (inactive); in the assay with Hs-578T, 33 µM (inactive). Besides, the GI50 with SN12C was 17.9 µM (inactive); in the assay with A498, 14.9 µM (inactive); in the assay with SK-MEL-28, 19.2 µM (inactive); in the assay with UO-31, 14.1 µM (inactive).

Regarding `CSc1nc(NC2CCCC2)c2cc[nH]c2n1`, the GI50 in the assay with SR was 22.3 µM (inactive); with UACC-62, 23.5 µM (inactive); in the assay with 786-0, 95.1 µM (inactive); with MCF7, 57.3 µM (inactive); with OVCAR-4, 48.5 µM (inactive); with Malme-3M, > 100 µM (inactive). For the same molecule, the GI50 was 34.8 µM (inactive) in the assay on SF-295; 55.5 µM (inactive) in the assay with UACC-257; 54.2 µM in the assay with HCT-15; 66.7 µM (inactive) in the assay on SNB-19; 54.1 µM (inactive) in the assay on OVCAR-3; 20 µM (inactive) with HL-60. For the same molecule, the GI50 in the assay with HOP-92 is 30.1 µM (inactive); in the assay with Hs-578T, 53.1 µM (inactive); in the assay with SN12C it was > 100 µM (inactive); in the assay with A498, 22.6 µM (inactive); in the assay with SK-MEL-28, 92 µM (inactive); in the assay with HCT-116, 35.2 µM (inactive). Besides, the GI50 in the assay with UO-31 was 48.1 µM (inactive).

As for `Cc1cc(NS(=O)(=O)c2ccc(NC(=O)c3ccc4nc5ccccc5c(Nc5ccc(S(N)(=O)=O)cc5)c4c3)cc2)no1`, the GI50 is 25.1 µM (inactive) in the assay on SR; 29.7 µM (inactive) with UACC-62; 17.1 µM (inactive) with 786-0; 19.9 µM (inactive) in the assay on MCF7; 27.4 µM (inactive) in the assay with OVCAR-4; 27 µM (inactive) in the assay with OVCAR-5. Also, the GI50 was 21.5 µM (inactive) in the assay with Malme-3M; 26.6 µM (inactive) in the assay with SF-295; 22 µM (inactive) in the assay on UACC-257; 19.2 µM in the assay on HCT-15; 58.2 µM (inactive) in the assay with SNB-19; 27.5 µM (inactive) in the assay with OVCAR-3. For the same molecule, the GI50 in the assay with HL-60 is 22.7 µM (inactive); with HOP-92 it was 24.6 µM (inactive); in the assay on Hs-578T it was 31.9 µM (inactive); with SN12C, 27.2 µM (inactive); in the assay with A498, 55.5 µM (inactive); with SK-MEL-28 it was 21 µM (inactive). In addition, the GI50 in the assay on HCT-116 is 24.8 µM (inactive); in the assay on UO-31, 20.1 µM (inactive).

On to `CC(C)(C)C1CCC2c3c([nH]c4ccccc34)C3C(=O)N(c4cccc(Cl)c4)C(=O)C3C2C1` (centres undefined), for which the GI50 in the assay on SR was 4.36 µM (inactive); in the assay with UACC-62, 12.9 µM (inactive); with 786-0 it was 8.28 µM (inactive); in the assay on MCF7, 2.06 µM (inactive); with OVCAR-4, 14.6 µM (inactive); in the assay with OVCAR-5, 13.5 µM (inactive). Further, the GI50 in the assay on Malme-3M was 16.6 µM (inactive); in the assay with SF-295, 18.5 µM (inactive); in the assay on UACC-257, 9.33 µM (inactive); in the assay on HCT-15, 14.5 µM; with SNB-19, 33.5 µM (inactive); in the assay on OVCAR-3 it was 15.1 µM (inactive). Besides, the GI50 in the assay with HL-60 was 3.01 µM (inactive); in the assay with HOP-92, 5.05 µM (inactive); with Hs-578T, 23.7 µM (inactive); with SN12C, 5.71 µM (inactive); with A498, 22.6 µM (inactive); in the assay with SK-MEL-28 it was 14.2 µM (inactive). Further, the GI50 was 6.3 µM (inactive) with HCT-116 and 9.12 µM (inactive) with UO-31.

Regarding `CC(C)(Cl)C(Br)CCC(C)(Cl)C(Br)CBr` (centres undefined), the GI50 was 2.58 µM (inactive) with SR; 38.2 µM (inactive) with UACC-62; 24.5 µM (inactive) in the assay with 786-0; 17.6 µM (inactive) in the assay on MCF7; 28.3 µM (inactive) in the assay with OVCAR-4; 18.7 µM (inactive) with OVCAR-5. Besides, the GI50 was 22.4 µM (inactive) with Malme-3M; 20.2 µM (inactive) in the assay on SF-295; 19.6 µM (inactive) in the assay with UACC-257; 24.6 µM with HCT-15; 39.4 µM (inactive) with SNB-19; 25.1 µM (inactive) with OVCAR-3. Also, the GI50 in the assay with HL-60 was 19.4 µM (inactive); with HOP-92, 15.8 µM (inactive); in the assay with Hs-578T, 35.7 µM (inactive); in the assay with SN12C it was 22.1 µM (inactive); with A498, 22.5 µM (inactive); in the assay with SK-MEL-28 it was 29.1 µM (inactive). Moreover, the GI50 in the assay on HCT-116 was 18.8 µM (inactive); with UO-31, 31.9 µM (inactive).

As for `COc1ccc2cc1Oc1ccc(cc1)CC1c3cc(OC)c(cc3CCN1C)Oc1c(OC)c(OC)cc3c1C(C2)N(C)CC3` (centres undefined), the GI50 with SR is 1.17 µM (inactive); in the assay with UACC-62, 12.8 µM (inactive); in the assay on 786-0 it was 13.1 µM (inactive); with MCF7, 14.6 µM (inactive); in the assay with OVCAR-4, 10.6 µM (inactive); with OVCAR-5, 34.2 µM (inactive). The GI50 with Malme-3M is 11.4 µM (inactive); with SF-295 it was 9.06 µM (inactive); in the assay on UACC-257 it was 6.75 µM (inactive); in the assay on HCT-15, 9.06 µM; in the assay with SNB-19 it was 12.7 µM (inactive); in the assay on HL-60, 4.71 µM (inactive). The GI50 is 16.3 µM (inactive) in the assay on HOP-92; 10.8 µM (inactive) in the assay on Hs-578T; 9.02 µM (inactive) with SN12C; 10.6 µM (inactive) with A498; 14.5 µM (inactive) with SK-MEL-28; 19.1 µM (inactive) in the assay with HCT-116. Besides, the GI50 in the assay on UO-31 was 9.42 µM (inactive).

Take `Nc1nn2c(C(Br)Br)cc(C(Br)Br)nc2c1[N+](=O)[O-]`: the GI50 is 0.283 µM (active) in the assay with SR; 1.81 µM (inactive) in the assay with UACC-62; 0.336 µM (active) in the assay with 786-0; 0.826 µM (active) in the assay with MCF7; 1.45 µM (inactive) in the assay with OVCAR-4; 1.72 µM (inactive) in the assay on OVCAR-5. Besides, the GI50 in the assay with Malme-3M is 0.738 µM (active); in the assay with SF-295 it was 1.77 µM (inactive); with UACC-257, 1.32 µM (inactive); in the assay on HCT-15, 1.07 µM; in the assay with SNB-19, 1.61 µM (inactive); in the assay on OVCAR-3, 0.437 µM (active). The GI50 with HL-60 is 0.178 µM (active); in the assay with HOP-92 it was 1.17 µM (inactive); with Hs-578T, 2.36 µM (inactive); in the assay on SN12C, 1.6 µM (inactive); with A498 it was 2.18 µM (inactive); with SK-MEL-28, 1.53 µM (inactive). The values for the GI50 in the assay with HCT-116 and in the assay with UO-31 were 0.634 µM (active) and 1.25 µM (inactive), respectively.

Regarding `Nc1ccc2c(=O)cc(-c3ccc(Br)s3)[nH]c2n1`, the GI50 is 0.267 µM (active) in the assay with SR; 3.02 µM (inactive) in the assay with UACC-62; 4.02 µM (inactive) in the assay on 786-0; 2.15 µM (inactive) in the assay with MCF7; > 56.6 µM (inactive) with OVCAR-4; 11.6 µM (inactive) in the assay on OVCAR-5. Moreover, the GI50 in the assay with Malme-3M is 12.4 µM (inactive); in the assay with SF-295, 2.83 µM (inactive); in the assay on UACC-257, > 27.7 µM (inactive); in the assay with HCT-15, 2.26 µM; in the assay on SNB-19, 4.63 µM (inactive); in the assay on OVCAR-3 it was 3.18 µM (inactive). Also, the GI50 was 2.41 µM (inactive) in the assay on HL-60; 12.7 µM (inactive) in the assay with HOP-92; 2.36 µM (inactive) in the assay on Hs-578T; 6.55 µM (inactive) with SN12C; 3.21 µM (inactive) with A498; 3.08 µM (inactive) in the assay with SK-MEL-28. Besides, the GI50 was 3.02 µM (inactive) in the assay with HCT-116 and 2.64 µM (inactive) in the assay with UO-31.

`CC1=CC(=O)/C(=C/NC(=S)NCc2ccccc2)C(=O)O1`: the GI50 in the assay on SR, with UACC-62, in the assay on 786-0, in the assay on MCF7, in the assay with OVCAR-4 and with OVCAR-5 was > 100 µM (inactive) each time. Further, the GI50 in the assay with Malme-3M is > 100 µM (inactive); with SF-295, > 100 µM (inactive); in the assay with UACC-257 it was > 100 µM (inactive); in the assay with HCT-15 it was above 100 µM; in the assay on SNB-19, > 100 µM (inactive); in the assay with OVCAR-3, > 100 µM (inactive). Besides, the GI50 in the assay on HL-60 is 75.3 µM (inactive); in the assay with HOP-92 it was > 100 µM (inactive); in the assay on Hs-578T it was > 100 µM (inactive); in the assay with SN12C, > 100 µM (inactive); in the assay with A498, 43.9 µM (inactive); in the assay with SK-MEL-28, > 100 µM (inactive). In addition, the GI50 in the assay with HCT-116 and with UO-31 was > 100 µM (inactive) throughout.

As to `CCc1nc(N)nc(N)c1-c1ccc(NCCN)c([N+](=O)[O-])c1`, the GI50 was 4 µM (inactive) in the assay on SR; 6.3 µM (inactive) in the assay with UACC-62; 7.03 µM (inactive) in the assay with 786-0; 10.2 µM (inactive) in the assay on MCF7; 20.7 µM (inactive) in the assay with OVCAR-4; 33.9 µM (inactive) in the assay on OVCAR-5. Moreover, the GI50 is 13.7 µM (inactive) with Malme-3M; 11.3 µM (inactive) with SF-295; 14.3 µM (inactive) with UACC-257; 37 µM in the assay on HCT-15; 24.7 µM (inactive) with SNB-19; 21.8 µM (inactive) in the assay on OVCAR-3. Besides, the GI50 is 3.99 µM (inactive) with HL-60; 27.6 µM (inactive) in the assay with HOP-92; 89.1 µM (inactive) in the assay with Hs-578T; 12.1 µM (inactive) with SN12C; 17.7 µM (inactive) in the assay with A498; > 59.3 µM (inactive) with SK-MEL-28. The GI50 with HCT-116 is 2.52 µM (inactive); in the assay on UO-31, > 100 µM (inactive).
